Assay [1] concerns anesthetized rats subjected to coronary artery occlusion. Kind of assay: Antiarrhythmic efficacy: arrhythmias after coronary artery occlusion in anesthetized rats. Type of assay: in vivo, rat. The note with it: i.v. infusion. The source says: Antiarrhythmic efficacy may be assessed by investigating the effect of a compound on the incidence of cardiac arrhythmias in anesthetized rats subjected to coronary artery occlusion. Rats weighing 200–300 gms are subjected to preparative surgery and assigned to groups in a random block design. In each case, the animal is anesthetized with pentobarbital during surgical preparation. The left carotid artery is cannulated for measurement of mean arterial blood pressure and withdrawal of blood samples. The left jugular vein is also cannulated for injection of drugs. The thoracic cavity is opened and a polyethylene occluder loosely placed around the left anterior descending coronary artery. The thoracic cavity is then closed. An ECG is recorded by insertion of electrodes placed along the anatomical axis of the heart. […] ECG, arrhythmias, blood pressure, heart rate and mortality are monitored for 15 minutes after occlusion. Arrhythmias are recorded as ventricular tachycardia (VT) and ventricular fibrillation (VF) and scored according to Curtis, M. J. and Walker, M. J. A., Cardiovasc. […]
Occlusion is associated with R-wave height and “S-T” segment elevation; and an occluded zone (measured after death by cardiogreen dye perfusion) in the range of 25%–50% of total left-ventricular weight.
Results of the test compounds may be expressed as values of a given infusion rate in micromol/kg/min. […]

In a further assay the target is T1, Kv4.2 (Homo sapiens, UniProt Q9NZV8).
T1 construct: expressed in transfected cells; host or cells: HEK cells, transient transfection, vector pCDNA3
T1 sequence (Q9NZV8 1-630): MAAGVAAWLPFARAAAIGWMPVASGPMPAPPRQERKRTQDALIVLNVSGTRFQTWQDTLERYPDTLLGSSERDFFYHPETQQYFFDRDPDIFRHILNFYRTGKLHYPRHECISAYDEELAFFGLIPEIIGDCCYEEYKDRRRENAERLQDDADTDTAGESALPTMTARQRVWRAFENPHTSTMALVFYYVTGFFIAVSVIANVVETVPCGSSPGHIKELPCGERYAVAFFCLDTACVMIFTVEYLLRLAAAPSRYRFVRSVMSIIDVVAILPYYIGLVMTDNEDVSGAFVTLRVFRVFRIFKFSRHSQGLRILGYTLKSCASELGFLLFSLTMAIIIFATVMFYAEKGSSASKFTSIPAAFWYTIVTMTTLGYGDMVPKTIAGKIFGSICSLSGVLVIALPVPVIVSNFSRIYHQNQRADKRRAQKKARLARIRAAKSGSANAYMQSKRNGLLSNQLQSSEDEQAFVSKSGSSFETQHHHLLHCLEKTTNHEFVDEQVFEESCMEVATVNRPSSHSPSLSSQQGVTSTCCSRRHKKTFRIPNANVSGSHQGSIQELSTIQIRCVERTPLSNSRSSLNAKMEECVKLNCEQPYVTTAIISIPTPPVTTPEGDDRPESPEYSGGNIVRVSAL
Kind of assay: Patch-clamp inhibition of cloned ion channel current in transfected HEK cells: Kv4.2. Type of assay: cell-based. To be noted: integrated current, -80 mV to +60 mV. Here is the method: The relevant cloned ion channels (e.g. cardiac hH1, Kv1.4, Kv1.5, Kv4.2, Kv2.1, HERG etc.) are studied by transient transfection into HEK cells using the mammalian expression vector pCDNA3. Transfections for each channel type are carried out separately to allow individual study of the ion channel of interest. Cells expressing channel protein are detected by cotransfecting cells with the vector pHook-1 (Invitrogen, San Diego, Calif., USA). […] Equal concentrations of individual channel and pHook DNA are incubated with 10× concentration of lipofectAce in Modified Eagle's Medium (MEM, Canadian Life Technologies) and incubated with parent HEK cells plated on 25 mm culture dishes. After 3–4 hours the solution is replaced with a standard culture medium plus 20% fetal bovine serum and 1% antimycotic. Transfected cells are maintained at 37C in an air/5% CO2 incubator in 25 mm Petri dishes plated on glass coverslips for 24–48 hours to allow channel expression to occur. 20 min prior to experiments, cells are treated with beads coated with phOX. After 15 min, excess beads are […] off with cell culture medium and cells which had beads stuck to them are used for electrophysiological tests.
For whole-cell recording the control pipette filling solution contained (in mM): KCl, 130; EGTA, 5; MgCl2, 1; HEPES, 10; Na2ATP, 4; GTP, 0.1; and is adjusted to pH 7.2 with KOH. The control bath solution contained (in mM): NaCl, 135; KCI, 5; sodium acetate, 2.8; MgCl2, 1; HEPES, 10; CaCl2, 1; and is adjusted to pH 7.4 with NaOH. The test ion channel modulating compound is dissolved to 10 mM stock solutions in water and used at concentrations between 0.5 and 100 μM.
Coverslips containing cells are removed from the incubator before experiments and placed in a superfusion chamber (volume 250 μl) containing the control bath solution at 22C to 23C. All recordings are made via the variations of the patch-clamp technique, using an Axopatch 200A amplifier (Axon Instruments, CA). Patch electrodes are pulled from thin-walled borosilicate glass (World Precision Instruments; FL) on a horizontal micropipette puller, fire-polished, and filled with appropriate solutions. Electrodes had resistances of […] when filled with control filling solution. Analog capacity compensation is used in all whole cell measurements. In some experiments, leak subtraction is applied to data. Membrane potentials have not been corrected for any junctional potentials that arose between the pipette and bath solution. Data are filtered at 5 to 10 kHz before digitization and stored on a microcomputer for later analysis using the pClamp6 software (Axon Instruments, Foster City, Calif.). Due to the high level of expression of channel cDNA's in HEK cells, there is no need for signal averaging. The average cell capacitance is quite small, and the absence of ionic current at negative membrane potentials allowed faithful leak subtraction of data.
The concentration-response curves for changes in peak and steady-state current produced by the test compound are computer-fitted to the Hill equation: f=1−1/[1+([…])^n] [1]
where f is the fractional current (f=Idrug/Icontrol) at drug concentration [D]; IC50 is the concentration producing half-maximal inhibition and n is the Hill coefficient.
Compounds of the present invention may be evaluated by this method. […] Block is determined from the decrease in peak hH1 Na^+ current, or in steady-state Kv1.5 and integrated Kv4.2 current in the presence of drug. To record Na^+ current, cells are depolarized from the holding potential of −100 mV to a voltage of −30 mV for 10 ms to fully open and inactivate the channel. To record Kv1.5 and Kv4.2 current, cells are depolarized from the holding potential of −80 mV to a voltage of +60 mV for 200 ms to fully open the channel. Currents are recorded in the steady-state at a range of drug concentrations during stimulation every 4 s. […]

Another assay concerns the target T2, HERG (Homo sapiens, UniProt Q12809).
T2 construct: expressed in transfected cells; host or cells: HEK cells, transient transfection, vector pCDNA3
Kind of assay: Patch-clamp inhibition of cloned ion channel current in transfected HEK cells: HERG. Type of assay: cell-based. To be noted: whole-cell patch clamp. A digest of the protocol: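 HERG channels were expressed by transient lipofection of HEK cells with pCDNA3 plus the pHook-1 marker, and bead-tagged cells were selected after 24–48 hours. Whole-cell currents were recorded at 22C to 23C with an Axopatch 200A in KCl pipette and NaCl bath solutions. Compound was applied at 0.5 to 100 μM, and IC50 came from Hill equation fits.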
A general note: The patch-clamp technique gives a direct electrical read-out from membranes.

pIC50: −log10 of the molar value.

T2 sequence (Q12809 whole entry): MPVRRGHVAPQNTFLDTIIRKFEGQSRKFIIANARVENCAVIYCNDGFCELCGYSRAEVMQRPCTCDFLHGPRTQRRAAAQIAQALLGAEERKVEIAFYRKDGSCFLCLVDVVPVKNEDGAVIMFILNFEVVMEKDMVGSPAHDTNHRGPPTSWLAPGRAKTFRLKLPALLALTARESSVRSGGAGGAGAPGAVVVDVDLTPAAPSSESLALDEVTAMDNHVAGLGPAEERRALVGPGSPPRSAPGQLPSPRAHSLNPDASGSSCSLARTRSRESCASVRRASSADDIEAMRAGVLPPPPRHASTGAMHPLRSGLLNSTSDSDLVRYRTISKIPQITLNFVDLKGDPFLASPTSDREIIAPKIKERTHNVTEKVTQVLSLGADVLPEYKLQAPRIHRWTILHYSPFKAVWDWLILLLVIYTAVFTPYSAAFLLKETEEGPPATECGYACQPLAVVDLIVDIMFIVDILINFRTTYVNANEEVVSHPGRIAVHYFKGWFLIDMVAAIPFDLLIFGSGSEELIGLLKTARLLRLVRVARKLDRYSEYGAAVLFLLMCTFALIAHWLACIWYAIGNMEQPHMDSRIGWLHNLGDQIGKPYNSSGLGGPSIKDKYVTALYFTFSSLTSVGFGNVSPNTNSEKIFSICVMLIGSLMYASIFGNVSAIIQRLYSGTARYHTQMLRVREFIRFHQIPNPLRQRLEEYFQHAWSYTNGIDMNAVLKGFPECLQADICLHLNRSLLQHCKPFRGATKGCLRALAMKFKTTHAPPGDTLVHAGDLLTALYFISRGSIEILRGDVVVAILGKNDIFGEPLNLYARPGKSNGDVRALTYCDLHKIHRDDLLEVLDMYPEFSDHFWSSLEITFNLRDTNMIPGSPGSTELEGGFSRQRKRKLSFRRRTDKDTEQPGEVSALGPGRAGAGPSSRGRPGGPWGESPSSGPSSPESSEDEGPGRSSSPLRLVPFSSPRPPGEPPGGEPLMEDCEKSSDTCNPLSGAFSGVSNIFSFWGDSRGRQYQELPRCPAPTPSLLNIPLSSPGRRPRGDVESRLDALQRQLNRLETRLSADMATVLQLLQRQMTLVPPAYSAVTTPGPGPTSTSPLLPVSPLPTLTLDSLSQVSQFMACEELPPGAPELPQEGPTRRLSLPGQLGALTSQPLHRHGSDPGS

With `COc1ccc(CCCOc2cccn3cc(C)nc23)cc1OC` [Compound 3, 8-[3-(3,4-DIMETHOXYPHENYL)PROPOXY]-2-METHYLIMIDAZO[1,2-α]PYRIDINE MONOHYDROCHLORDE], the “ED50AA (infusion rate reducing arrhythmia score to 50% of vehicle-treated animals)” value in assay [1] was determined as 5 µmol/kg/min. For the same compound, the pIC50 on Kv4.2 is 4.89; at HERG, 6.22.

For orientation: pIC50 means the IC50 on a negative log10 scale, so that one unit is a factor of ten. A high value points to a low IC50.

For the origin of these results see patent US7105534B2, “Imidazo[1,2-α]pyridine ether compounds as ion channel modulators” (Cardiome Pharma Corp., priority 2000, dated 2006).
